# Experimental data taken from ChEMBL document CHEMBL3991601, “The target landscape of clinical kinase drugs” (Science, 2017).
# Calls of active or inactive are those of the source.
# Biological target: T1, Ras-related protein Rab-10 (Homo sapiens, UniProt P61026)
# T1 sequence (P61026 whole entry): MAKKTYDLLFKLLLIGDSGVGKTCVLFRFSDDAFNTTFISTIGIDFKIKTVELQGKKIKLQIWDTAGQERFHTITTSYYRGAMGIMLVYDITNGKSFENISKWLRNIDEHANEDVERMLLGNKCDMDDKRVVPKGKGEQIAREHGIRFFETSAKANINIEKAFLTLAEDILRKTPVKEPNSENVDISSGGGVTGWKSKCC
# Note: in the data inactive means no Kd found up to 30 µM.
row,SMILES,Kd
1,CCCS(=O)(=O)Nc1ccc(F)c(C(=O)c2c[nH]c3ncc(-c4ccc(Cl)cc4)cc23)c1F [VEMURAFENIB],> 30 µM (inactive)
2,CC[C@@H]1C(=O)N(C)c2cnc(Nc3ccc(C(=O)N[C@H]4CC[C@H](N5CCN(CC6CC6)CC5)CC4)cc3OC)nc2N1C(C)C [VOLASERTIB],> 30 µM (inactive)
3,CCn1c(=O)c(-c2cc[nH]n2)cc2c(C)nc(N)nc21 [VOXTALISIB],> 30 µM (inactive)
4,O=C(Nc1ccc(-c2ccnc(Nc3ccc(N4CCOCC4)cc3)n2)cc1)C1CCCN1 (stereo not drawn) [XL-019],> 30 µM (inactive)

# Biological target: T2, Dual specificity mitogen-activated protein kinase kinase 6 (Homo sapiens, UniProt P52564)
# T2 sequence (P52564 whole entry): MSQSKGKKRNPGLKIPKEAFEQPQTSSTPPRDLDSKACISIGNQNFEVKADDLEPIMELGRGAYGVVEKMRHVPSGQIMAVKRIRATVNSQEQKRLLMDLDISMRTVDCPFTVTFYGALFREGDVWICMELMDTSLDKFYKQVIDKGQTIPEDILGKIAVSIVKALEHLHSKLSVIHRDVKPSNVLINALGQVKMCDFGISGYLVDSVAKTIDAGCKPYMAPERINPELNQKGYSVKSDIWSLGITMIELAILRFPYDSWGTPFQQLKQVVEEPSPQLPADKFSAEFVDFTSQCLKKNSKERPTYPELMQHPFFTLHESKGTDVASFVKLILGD
row,SMILES,Kd
1,CCCS(=O)(=O)Nc1ccc(F)c(C(=O)c2c[nH]c3ncc(-c4ccc(Cl)cc4)cc23)c1F [VEMURAFENIB],> 30 µM (inactive)
2,CC[C@@H]1C(=O)N(C)c2cnc(Nc3ccc(C(=O)N[C@H]4CC[C@H](N5CCN(CC6CC6)CC5)CC4)cc3OC)nc2N1C(C)C [VOLASERTIB],> 30 µM (inactive)
3,CCn1c(=O)c(-c2cc[nH]n2)cc2c(C)nc(N)nc21 [VOXTALISIB],> 30 µM (inactive)
4,O=C(Nc1ccc(-c2ccnc(Nc3ccc(N4CCOCC4)cc3)n2)cc1)C1CCCN1 (stereo not drawn) [XL-019],> 30 µM (inactive)

# Biological target: Macrophage-stimulating protein receptor (Homo sapiens, UniProt Q04912)
# Sequence (Q04912 25-304 limits assumed): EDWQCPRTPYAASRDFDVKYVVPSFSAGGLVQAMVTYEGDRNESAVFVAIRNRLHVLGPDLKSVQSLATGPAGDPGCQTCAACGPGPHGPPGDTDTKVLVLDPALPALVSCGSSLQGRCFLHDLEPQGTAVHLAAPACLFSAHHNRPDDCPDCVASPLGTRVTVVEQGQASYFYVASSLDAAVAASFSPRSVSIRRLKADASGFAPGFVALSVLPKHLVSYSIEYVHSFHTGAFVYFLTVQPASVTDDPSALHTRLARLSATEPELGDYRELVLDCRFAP
# Sequence (Q04912 310-1400 limits assumed): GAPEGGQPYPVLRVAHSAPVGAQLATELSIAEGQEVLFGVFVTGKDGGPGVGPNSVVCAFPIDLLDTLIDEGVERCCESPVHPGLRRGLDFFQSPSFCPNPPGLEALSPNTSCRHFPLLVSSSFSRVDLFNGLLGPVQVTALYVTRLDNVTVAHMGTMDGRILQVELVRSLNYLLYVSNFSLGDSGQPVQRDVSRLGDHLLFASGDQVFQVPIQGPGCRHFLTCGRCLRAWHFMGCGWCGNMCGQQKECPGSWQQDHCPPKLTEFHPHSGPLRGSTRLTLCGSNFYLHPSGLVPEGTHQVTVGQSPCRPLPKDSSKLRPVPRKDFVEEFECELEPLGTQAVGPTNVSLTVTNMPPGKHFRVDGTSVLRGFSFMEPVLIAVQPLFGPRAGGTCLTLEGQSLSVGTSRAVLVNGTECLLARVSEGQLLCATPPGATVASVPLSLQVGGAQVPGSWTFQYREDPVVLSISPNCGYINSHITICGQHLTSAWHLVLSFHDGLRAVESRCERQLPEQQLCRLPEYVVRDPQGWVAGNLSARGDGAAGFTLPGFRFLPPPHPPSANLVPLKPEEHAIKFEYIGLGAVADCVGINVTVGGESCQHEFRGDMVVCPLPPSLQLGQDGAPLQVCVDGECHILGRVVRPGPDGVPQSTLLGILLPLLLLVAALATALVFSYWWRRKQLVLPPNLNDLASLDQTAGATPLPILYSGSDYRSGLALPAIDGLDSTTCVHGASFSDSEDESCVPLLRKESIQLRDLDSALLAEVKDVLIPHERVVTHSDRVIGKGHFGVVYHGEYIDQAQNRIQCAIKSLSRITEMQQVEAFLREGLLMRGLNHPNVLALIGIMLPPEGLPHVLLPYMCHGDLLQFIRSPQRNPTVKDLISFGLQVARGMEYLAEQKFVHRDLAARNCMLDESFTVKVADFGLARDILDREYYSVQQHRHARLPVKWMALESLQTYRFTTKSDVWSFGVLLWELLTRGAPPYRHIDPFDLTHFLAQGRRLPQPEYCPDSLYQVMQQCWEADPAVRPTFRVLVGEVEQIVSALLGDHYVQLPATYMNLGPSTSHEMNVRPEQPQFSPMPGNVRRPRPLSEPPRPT
row,SMILES,Kd
1,CCCS(=O)(=O)Nc1ccc(F)c(C(=O)c2c[nH]c3ncc(-c4ccc(Cl)cc4)cc23)c1F [VEMURAFENIB],> 30 µM (inactive)
2,CC[C@@H]1C(=O)N(C)c2cnc(Nc3ccc(C(=O)N[C@H]4CC[C@H](N5CCN(CC6CC6)CC5)CC4)cc3OC)nc2N1C(C)C [VOLASERTIB],> 30 µM (inactive)
3,CCn1c(=O)c(-c2cc[nH]n2)cc2c(C)nc(N)nc21 [VOXTALISIB],> 30 µM (inactive)
4,O=C(Nc1ccc(-c2ccnc(Nc3ccc(N4CCOCC4)cc3)n2)cc1)C1CCCN1 (stereo not drawn) [XL-019],> 30 µM (inactive)

# Biological target: T3, MAP/microtubule affinity-regulating kinase 4 (Homo sapiens, UniProt Q96L34)
# T3 sequence (Q96L34 whole entry): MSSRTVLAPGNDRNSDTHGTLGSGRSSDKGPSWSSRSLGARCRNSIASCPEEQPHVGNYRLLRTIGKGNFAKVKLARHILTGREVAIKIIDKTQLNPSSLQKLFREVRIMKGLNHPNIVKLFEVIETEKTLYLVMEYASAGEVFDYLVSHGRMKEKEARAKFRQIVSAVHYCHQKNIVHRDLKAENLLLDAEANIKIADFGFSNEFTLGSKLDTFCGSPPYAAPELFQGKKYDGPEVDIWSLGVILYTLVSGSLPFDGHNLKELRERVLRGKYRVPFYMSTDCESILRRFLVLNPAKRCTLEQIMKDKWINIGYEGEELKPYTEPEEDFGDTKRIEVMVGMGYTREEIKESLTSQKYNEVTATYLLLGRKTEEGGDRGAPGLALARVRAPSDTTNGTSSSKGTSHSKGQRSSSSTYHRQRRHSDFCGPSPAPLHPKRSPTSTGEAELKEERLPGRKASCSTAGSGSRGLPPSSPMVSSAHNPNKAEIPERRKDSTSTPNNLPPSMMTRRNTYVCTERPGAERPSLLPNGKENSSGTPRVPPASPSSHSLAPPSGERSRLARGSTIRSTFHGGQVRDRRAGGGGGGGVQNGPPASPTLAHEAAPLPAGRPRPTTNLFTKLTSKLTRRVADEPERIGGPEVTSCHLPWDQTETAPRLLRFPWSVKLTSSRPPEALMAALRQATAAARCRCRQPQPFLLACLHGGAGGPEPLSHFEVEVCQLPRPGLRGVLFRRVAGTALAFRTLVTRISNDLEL
row,SMILES,Kd
1,CCCS(=O)(=O)Nc1ccc(F)c(C(=O)c2c[nH]c3ncc(-c4ccc(Cl)cc4)cc23)c1F [VEMURAFENIB],> 30 µM (inactive)
2,CC[C@@H]1C(=O)N(C)c2cnc(Nc3ccc(C(=O)N[C@H]4CC[C@H](N5CCN(CC6CC6)CC5)CC4)cc3OC)nc2N1C(C)C [VOLASERTIB],> 30 µM (inactive)
3,CCn1c(=O)c(-c2cc[nH]n2)cc2c(C)nc(N)nc21 [VOXTALISIB],> 30 µM (inactive)
4,O=C(Nc1ccc(-c2ccnc(Nc3ccc(N4CCOCC4)cc3)n2)cc1)C1CCCN1 (stereo not drawn) [XL-019],> 30 µM (inactive)

# Biological target: T4, Peroxisomal acyl-coenzyme A oxidase 1 (Homo sapiens, UniProt Q15067)
# T4 sequence (Q15067 whole entry): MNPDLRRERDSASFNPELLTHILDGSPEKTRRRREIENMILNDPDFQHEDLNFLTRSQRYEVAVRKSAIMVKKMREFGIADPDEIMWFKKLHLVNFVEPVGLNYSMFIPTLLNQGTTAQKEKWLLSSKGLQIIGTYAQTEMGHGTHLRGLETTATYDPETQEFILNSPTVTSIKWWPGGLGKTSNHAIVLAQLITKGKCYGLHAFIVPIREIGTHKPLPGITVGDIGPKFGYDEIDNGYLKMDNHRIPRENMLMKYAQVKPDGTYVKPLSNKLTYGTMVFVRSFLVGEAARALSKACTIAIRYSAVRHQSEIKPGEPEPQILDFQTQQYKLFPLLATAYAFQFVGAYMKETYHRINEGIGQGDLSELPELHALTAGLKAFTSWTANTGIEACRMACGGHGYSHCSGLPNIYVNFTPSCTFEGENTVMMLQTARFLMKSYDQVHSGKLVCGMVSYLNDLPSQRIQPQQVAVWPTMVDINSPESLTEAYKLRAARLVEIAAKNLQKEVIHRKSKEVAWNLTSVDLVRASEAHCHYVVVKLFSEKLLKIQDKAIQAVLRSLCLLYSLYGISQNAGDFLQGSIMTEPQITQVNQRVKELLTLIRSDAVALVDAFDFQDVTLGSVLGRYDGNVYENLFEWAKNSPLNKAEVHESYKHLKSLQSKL
row,SMILES,Kd
1,CCCS(=O)(=O)Nc1ccc(F)c(C(=O)c2c[nH]c3ncc(-c4ccc(Cl)cc4)cc23)c1F [VEMURAFENIB],> 30 µM (inactive)
2,CC[C@@H]1C(=O)N(C)c2cnc(Nc3ccc(C(=O)N[C@H]4CC[C@H](N5CCN(CC6CC6)CC5)CC4)cc3OC)nc2N1C(C)C [VOLASERTIB],> 30 µM (inactive)
3,CCn1c(=O)c(-c2cc[nH]n2)cc2c(C)nc(N)nc21 [VOXTALISIB],> 30 µM (inactive)
4,O=C(Nc1ccc(-c2ccnc(Nc3ccc(N4CCOCC4)cc3)n2)cc1)C1CCCN1 (stereo not drawn) [XL-019],> 30 µM (inactive)

# Biological target: T5, Dual specificity mitogen-activated protein kinase kinase 3 (Homo sapiens, UniProt P46734)
# T5 sequence (P46734 whole entry): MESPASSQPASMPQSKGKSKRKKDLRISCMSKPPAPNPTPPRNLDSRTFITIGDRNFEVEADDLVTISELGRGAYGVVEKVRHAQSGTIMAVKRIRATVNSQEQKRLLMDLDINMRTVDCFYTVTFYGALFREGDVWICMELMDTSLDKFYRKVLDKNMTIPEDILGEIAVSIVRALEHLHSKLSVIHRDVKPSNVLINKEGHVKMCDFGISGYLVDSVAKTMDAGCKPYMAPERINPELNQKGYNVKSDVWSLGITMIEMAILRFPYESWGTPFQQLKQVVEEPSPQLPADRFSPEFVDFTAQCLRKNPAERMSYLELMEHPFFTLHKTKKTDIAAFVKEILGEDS
row,SMILES,Kd
1,CCCS(=O)(=O)Nc1ccc(F)c(C(=O)c2c[nH]c3ncc(-c4ccc(Cl)cc4)cc23)c1F [VEMURAFENIB],> 30 µM (inactive)
2,CC[C@@H]1C(=O)N(C)c2cnc(Nc3ccc(C(=O)N[C@H]4CC[C@H](N5CCN(CC6CC6)CC5)CC4)cc3OC)nc2N1C(C)C [VOLASERTIB],> 30 µM (inactive)
3,CCn1c(=O)c(-c2cc[nH]n2)cc2c(C)nc(N)nc21 [VOXTALISIB],> 30 µM (inactive)
4,O=C(Nc1ccc(-c2ccnc(Nc3ccc(N4CCOCC4)cc3)n2)cc1)C1CCCN1 (stereo not drawn) [XL-019],> 30 µM (inactive)

# Biological target: MAP/microtubule affinity-regulating kinase 3 (Homo sapiens, UniProt P27448)
# Sequence (P27448 whole entry): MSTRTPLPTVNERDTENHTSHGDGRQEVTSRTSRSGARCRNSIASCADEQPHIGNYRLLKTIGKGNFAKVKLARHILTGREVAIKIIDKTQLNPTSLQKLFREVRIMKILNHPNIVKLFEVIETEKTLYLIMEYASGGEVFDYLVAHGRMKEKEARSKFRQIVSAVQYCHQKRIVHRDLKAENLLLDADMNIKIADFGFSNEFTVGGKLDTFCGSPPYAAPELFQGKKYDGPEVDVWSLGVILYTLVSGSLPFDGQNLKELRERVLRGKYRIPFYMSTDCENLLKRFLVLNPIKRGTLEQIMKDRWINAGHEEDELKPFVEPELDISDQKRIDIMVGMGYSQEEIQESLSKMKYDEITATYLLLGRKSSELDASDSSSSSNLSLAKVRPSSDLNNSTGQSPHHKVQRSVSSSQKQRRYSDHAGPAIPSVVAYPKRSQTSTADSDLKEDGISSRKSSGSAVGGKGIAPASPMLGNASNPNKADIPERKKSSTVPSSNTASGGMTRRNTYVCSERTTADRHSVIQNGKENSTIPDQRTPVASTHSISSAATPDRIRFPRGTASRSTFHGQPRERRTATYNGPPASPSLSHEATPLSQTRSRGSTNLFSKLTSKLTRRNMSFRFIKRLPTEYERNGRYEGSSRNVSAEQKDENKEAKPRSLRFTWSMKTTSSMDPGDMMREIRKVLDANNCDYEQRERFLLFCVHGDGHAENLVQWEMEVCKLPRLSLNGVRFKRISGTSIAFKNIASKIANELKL
row,SMILES,Kd
1,CCCS(=O)(=O)Nc1ccc(F)c(C(=O)c2c[nH]c3ncc(-c4ccc(Cl)cc4)cc23)c1F [VEMURAFENIB],> 30 µM (inactive)
2,CC[C@@H]1C(=O)N(C)c2cnc(Nc3ccc(C(=O)N[C@H]4CC[C@H](N5CCN(CC6CC6)CC5)CC4)cc3OC)nc2N1C(C)C [VOLASERTIB],> 30 µM (inactive)
3,CCn1c(=O)c(-c2cc[nH]n2)cc2c(C)nc(N)nc21 [VOXTALISIB],> 30 µM (inactive)
4,O=C(Nc1ccc(-c2ccnc(Nc3ccc(N4CCOCC4)cc3)n2)cc1)C1CCCN1 (stereo not drawn) [XL-019],1.61 µM (active)
